What all share (assay): NCI tumour cell line growth inhibition, 48 h
In assay [1] the test system is MALME-3M melanoma.
The subject of assay [2] is KM12 colon.
Assay [3] relates to UO-31 renal.
Assay [4] concerns SN12C renal.
Assay [5] has as its system SK-MEL-5 melanoma.
For assay [6], the system named is SF-268 CNS.
In assay [7] the test system is HCC-2998 colon.
Assay [8] has as its system SK-OV-3 ovarian.
The test system of assay [9] is A498 renal.
Assay [10] deals with HL-60(TB) leukemia.

Where “and” joins values, the source holds several entries; their conditions need not be identical. Equal entries are not always repeated.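 Values below derive from 48-hour exposures of cells grown in 96-well plates, with endpoints linearly interpolated between the two concentrations bracketing the appropriate inhibition level. The concentration for 50% growth inhibition is given as GI50. Definition used: TGI = concentration required for complete inhibition of growth.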

Turning to `Cn1c(=O)nc2n(-c3ccc(Cl)cc3)c(-c3ccccc3)c(-c3ccccc3)nc-2c1=O`, the TGI in [1] was over 100 µM; in assay [2] it was over 100 µM; in [3], 60.7 µM; in [4], over 100 µM; in assay [5], 53.5 µM; in assay [6], over 100 µM. The TGI in assay [7] was over 100 µM; in assay [8], over 100 µM; in [9] it was over 100 µM; in assay [10] it was 58.6 µM.
In the case of `NCCCCCNc1noc(Cc2c[nH]c3cc(Br)ccc23)n1`, the GI50 in assay [1] is 2.59 µM; in assay [2] it was 1.24 µM; in assay [3], 3.46 µM; in assay [4] it was 3.54 µM; in assay [5], 2.08 µM; in [6] it was 8.13 µM. The GI50 in [7] is 2.84 µM; in assay [8] it was 2.46 µM; in assay [9], 1.76 µM; in assay [10] it was 1.66 µM. Further, the TGI in assay [1] was determined as 22.7 µM; in assay [2] it was 14.7 µM; in assay [3], 25.3 µM; in assay [4], 16.9 µM; in [5], 16.2 µM; in assay [6] it was 29.1 µM. Moreover, the TGI in assay [7] worked out at 14.7 µM; in [8], 12.5 µM; in [9], 10.7 µM; in assay [10] it was 9.15 µM.
As to `C[C@H]1C/C=C/[C@H]2[C@@H]3O[C@]3(C)[C@@H](C)[C@H]3[C@H](Cc4ccccc4)NC(=O)[C@]32OC(=O)O/C=C/[C@@](C)(O)C1=O`, the GI50 is 0.0212 µM in [1]; 11.7 µM and 29.1 µM in [2]; under 0.025 µM in [4]; 0.0539 µM and 0.0351 µM in assay [5]; 0.0125 µM and 0.025 µM in assay [6]; 0.155 µM and 0.342 µM in assay [7]. For the same compound, the GI50 in assay [8] was 0.025 µM; in [9], 0.0126 µM; in assay [10], 0.153 µM and 0.0973 µM. The TGI in assay [1] is 2.91 µM and 3.5 µM and 0.877 µM; in assay [2], 125 µM and > 250 µM; in [3] it was 0.0499 µM; in [9] it was 0.0665 µM and 0.527 µM; in [10] it was 11.3 µM and 2.95 µM and 4.97 µM.
As to `C[C@]12CC[C@@H]3c4ccc(O)cc4CC[C@H]3[C@@H]1CC[C@@H]2NS(=O)(=O)c1ccc(Br)cc1`, the GI50 was 1.93 µM in assay [1]; 1.97 µM in assay [2]; 1.76 µM in assay [3]; 1.79 µM in assay [4]; 1.76 µM in [5]; 3.43 µM in assay [6]. Besides, the GI50 in assay [7] was 3.21 µM; in assay [8] it was 4.53 µM; in [9], 1.61 µM; in assay [10], 2.77 µM. Moreover, the TGI stood at 4.36 µM in [1]; 3.89 µM in [2]; 4.35 µM in assay [3]; 3.5 µM in assay [4]; 3.22 µM in assay [5]; 13.4 µM in [6]. Besides, the TGI was found to be 10.5 µM in assay [7], 13.6 µM in assay [8], 3.7 µM in [9] and 8.5 µM in assay [10].
For `CO[C@@H]1CCN(c2nccc(Nc3cc4c(C(C)C)ccc(N5CC(CS(C)(=O)=O)[C@H]5C)c4cn3)n2)C[C@@H]1F` (stereo partly specified), the GI50 in [1] is 3.76 µM; in assay [2], 3.14 µM; in assay [3] it was 1.41 µM; in assay [4], 3.35 µM; in assay [5], 2.22 µM; in assay [6] it was 3.98 µM. Moreover, the GI50 is 4.55 µM in [7], 7.42 µM in assay [8], 10.1 µM in assay [9] and 3.06 µM in assay [10]. In addition, the TGI in assay [1] is 15.6 µM; in assay [2], over 100 µM; in assay [3], 11.9 µM; in [4], over 100 µM; in assay [5], 5.42 µM; in assay [6], over 100 µM. Besides, the TGI in [7] was 36 µM; in [8], over 100 µM; in assay [9] it was 44.7 µM; in [10], over 100 µM.
As for `CCOC(=O)C1C=C2O[C@@H]3OC4(CCCCC4)O[C@@H]3C2C2C(=O)CCC(=O)[C@@]12C(=O)OC` (stereo partly specified), the TGI in assay [1], in assay [2], in assay [3], in [4], in assay [5] and in assay [6] was over 100 µM in each case. Besides, the TGI in assay [7], in assay [8], in assay [9] and in assay [10] was over 100 µM each time.
`S=c1o[nH]c(-c2ccccc2)c1C=Nc1ccccc1`: the TGI in [1], in [2], in assay [3], in assay [4], in assay [5] and in [6] was over 100 µM in each case. Also, the TGI in [7], in assay [8], in assay [9] and in assay [10] was over 100 µM throughout.
For `CS(=O)(=O)Nc1cc(-c2ccc3ncnc(Nc4ccc(F)c(Cl)c4)c3c2)cnc1Cl`, the GI50 is 0.191 µM and 0.179 µM in [1]; 1.24 µM and 1.71 µM in [2]; 0.204 µM in assay [3]; 0.389 µM in [4]; 0.41 µM in [5]; 0.51 µM and 0.675 µM in assay [6]. Moreover, the GI50 in [7] is 1.21 µM; in [8] it was 0.255 µM and 0.317 µM; in assay [9], 0.199 µM and 0.13 µM; in [10], 0.514 µM and 0.302 µM. The TGI in [1] was 1.13 µM and 1.56 µM; in assay [2], 3.39 µM and 8.13 µM; in assay [3] it was 1.69 µM; in [4], 12.7 µM; in assay [5], 1.69 µM; in [6] it was 8.05 µM and 20.1 µM. In addition, the TGI in assay [7] was 4.05 µM; in assay [8], 1.34 µM and 2.71 µM; in [9], 0.664 µM and 0.555 µM; in assay [10], 14.7 µM and 3.35 µM.
Consider `COc1cc(Cl)cc(-c2nn(-c3cccc(NC(=O)Nc4cccc(C(F)(F)F)c4)c3)cc2-c2ccncc2)c1`, for which the GI50 in assay [1] was 1.79 µM; in assay [2], 0.611 µM; in [3] it was 1.03 µM; in assay [4], 2.06 µM; in assay [5], 1.48 µM; in assay [6] it was 2.56 µM. For the same compound, the GI50 in [7] was 3.47 µM; in [8], 3.61 µM; in [9], 2.25 µM; in assay [10], 1.91 µM. For the same compound, the TGI in [1] was found to be 5.91 µM; in assay [2], 4.79 µM; in [3], 7.75 µM; in [4], 18.5 µM; in assay [5], 2.84 µM; in [6], 17.1 µM. Also, the TGI in [7] amounted to 14 µM; in assay [8], 58.4 µM; in assay [9] it was 25.6 µM; in [10] it was 5.51 µM.
Regarding `COc1cccc(/C=C/c2nc3c(cnn3-c3ccccc3)c(=O)[nH]2)c1`, the GI50 was over 100 µM in assay [1]; 25.5 µM in assay [2]; over 56.8 µM in assay [3]; over 100 µM in [4]; over 96.6 µM in assay [5]; over 55.6 µM in [6]. For the same compound, the GI50 in [7] is over 100 µM; in [8], over 100 µM; in [9], over 100 µM; in assay [10], over 62.8 µM. For the same compound, the TGI in assay [1], in [2], in assay [3], in assay [4], in assay [5] and in assay [6] was over 100 µM throughout. In addition, the TGI in assay [7], in assay [8], in assay [9] and in assay [10] was over 100 µM in each case.
`OB(O)c1ccccc1C#Cc1ccccc1B(O)O`: the TGI in [1] is 44.2 µM; in [2], 49 µM; in assay [3], 60.5 µM; in assay [4], 68 µM; in assay [5], 31.9 µM; in assay [6] it was 46.9 µM. Besides, the TGI in [7] is 40.9 µM; in [8], over 100 µM; in [9] it was 15.6 µM; in assay [10] it was over 100 µM.
As for `O=c1c2cc(Br)cc(Br)c2nc(CCCl)n1-c1ccc(O)c([N+](=O)[O-])c1`, the TGI in assay [1] was determined as 36.4 µM; in assay [2] it was 33.7 µM; in [3] it was 33.9 µM; in assay [4] it was 31.8 µM; in assay [5], 35.6 µM; in assay [6] it was 37.9 µM. Further, the TGI in assay [7] was found to be 32.4 µM; in assay [8], 29.5 µM; in assay [9], 52 µM; in [10], 42.9 µM.
Regarding `Cc1cccc(C)c1NC(=O)CCc1nnc2s/c(=C\c3ccc(N(C)C)cc3)c(=O)n12`, the TGI in assay [1], in assay [2], in assay [3], in [4], in [5] and in assay [6] was over 100 µM in each case. The TGI in assay [7], in [8], in assay [9] and in assay [10] was over 100 µM throughout.
Turning to `N#Cc1c(-c2ccccc2)cc(-c2ccc(N)cc2)[nH]c1=O`, the TGI in assay [1], in assay [2], in assay [3], in [4], in [5] and in assay [6] was over 100 µM each time. In addition, the TGI in assay [7], in assay [8], in assay [9] and in assay [10] was over 100 µM throughout.
For `C[N+](C)(C)CC1CCC(C[N+](C)(C)C)C1=O` (stereo unspecified), the TGI in assay [1] is 2.28 µM; in assay [2] it was 16.3 µM; in assay [3], 8.51 µM; in assay [4], 8.18 µM; in [5] it was 23.8 µM; in assay [6], 21.2 µM. The TGI in assay [7] amounted to 22.5 µM; in assay [8] it was 42 µM; in assay [9], 21.9 µM; in assay [10], 0.995 µM. In addition, the GI50 in assay [6] is 7.26 µM; in [10] it was 0.309 µM.
`CNC(=O)c1cc(Oc2cccc3nc(NC(=O)Nc4cc(C(F)(F)F)cc(C(F)(F)F)c4)ccc23)ccn1`: the GI50 in assay [1] is 2.62 µM; in assay [2] it was 15.2 µM; in assay [3] it was 4.91 µM; in assay [4] it was 5.27 µM; in assay [5] it was 6.2 µM; in [6], 4.93 µM. The GI50 in assay [7] was 15.5 µM; in assay [8] it was 2.99 µM; in [9] it was 1.99 µM; in assay [10] it was 23.4 µM. In addition, the TGI in assay [1] was 12.9 µM; in assay [2], over 100 µM; in assay [3], 40.5 µM; in assay [4], over 100 µM; in assay [5], 24.2 µM; in [6] it was 39.4 µM. Also, the TGI is over 100 µM in assay [7], 10.1 µM in assay [8], 5.02 µM in assay [9] and 77.2 µM in assay [10].
For `O=[P+](O)c1ccccn1`, the TGI in [1], in assay [2], in assay [3], in [4], in [5] and in assay [6] was over 100 µM each time. The TGI in [7], in assay [8], in assay [9] and in assay [10] was over 100 µM in each case.
Turning to `N#Cc1ccc(-c2c(-c3ncn[nH]3)sc(N3CCOCC3)c2C#N)c(F)c1`, the GI50 is 0.275 µM in assay [1]; 2.25 µM in [2]; 0.191 µM in [3]; 0.835 µM in assay [4]; 2.29 µM in [5]; 0.507 µM in assay [6]. Moreover, the GI50 in assay [7] is 1.08 µM; in [8], 0.197 µM; in [9] it was 0.0225 µM; in assay [10] it was 0.781 µM. In addition, the TGI in assay [1] is 6 µM; in assay [2] it was 15.6 µM; in assay [3], 11.2 µM; in assay [4], over 100 µM; in assay [5], 13.7 µM; in assay [6], 59.1 µM. Moreover, the TGI in assay [7] is 17.2 µM; in [8] it was 5.69 µM; in [9], 0.206 µM; in assay [10], over 100 µM.

The record behind these values is PubChem BioAssay (NCI).
